Measurements reported in article PMC6437697 (Journal of Medicinal Chemistry, 2019).

Key:
Test in all cases: KINOMEscan
Type in all cases: binding
Conditions in all cases: read-out: % control activity remaining
MELK = target: T1, MELK (Homo sapiens, UniProt Q14680)
T1 construct: purchased Eurofins DiscoverX KINOMEscan

[1] = target: T2, ABL1(F317I)-phosphorylated (Homo sapiens, UniProt P00519, F317I)
T2 construct: purchased Eurofins DiscoverX KINOMEscan

FES = target: T3, FES (Homo sapiens, UniProt P07332)
T3 construct: purchased Eurofins DiscoverX KINOMEscan
T3 sequence (P07332 whole entry): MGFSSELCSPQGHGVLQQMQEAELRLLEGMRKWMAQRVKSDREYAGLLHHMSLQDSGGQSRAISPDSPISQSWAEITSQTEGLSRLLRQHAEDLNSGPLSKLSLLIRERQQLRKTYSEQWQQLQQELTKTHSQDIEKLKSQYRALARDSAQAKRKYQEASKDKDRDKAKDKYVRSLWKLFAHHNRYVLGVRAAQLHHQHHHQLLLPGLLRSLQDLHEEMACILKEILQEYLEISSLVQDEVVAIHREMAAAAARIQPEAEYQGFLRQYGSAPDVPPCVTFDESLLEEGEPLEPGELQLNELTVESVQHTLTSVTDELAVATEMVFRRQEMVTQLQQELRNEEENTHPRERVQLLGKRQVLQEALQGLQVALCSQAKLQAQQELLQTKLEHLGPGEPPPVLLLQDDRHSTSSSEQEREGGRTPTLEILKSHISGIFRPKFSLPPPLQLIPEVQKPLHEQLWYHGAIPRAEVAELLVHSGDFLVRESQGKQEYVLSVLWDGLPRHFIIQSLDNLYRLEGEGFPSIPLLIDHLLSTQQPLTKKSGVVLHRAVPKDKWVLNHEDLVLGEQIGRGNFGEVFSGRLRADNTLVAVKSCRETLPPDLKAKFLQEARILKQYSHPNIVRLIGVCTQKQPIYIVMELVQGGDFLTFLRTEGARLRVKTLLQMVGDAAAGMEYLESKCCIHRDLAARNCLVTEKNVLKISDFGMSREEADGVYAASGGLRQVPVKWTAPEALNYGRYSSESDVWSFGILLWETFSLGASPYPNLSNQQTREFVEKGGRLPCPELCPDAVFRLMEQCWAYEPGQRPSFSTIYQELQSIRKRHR

NEK10 = target: T4, NEK10 (Homo sapiens, UniProt Q6ZWH5)
T4 construct: purchased Eurofins DiscoverX KINOMEscan
T4 sequence (Q6ZWH5 1-1172): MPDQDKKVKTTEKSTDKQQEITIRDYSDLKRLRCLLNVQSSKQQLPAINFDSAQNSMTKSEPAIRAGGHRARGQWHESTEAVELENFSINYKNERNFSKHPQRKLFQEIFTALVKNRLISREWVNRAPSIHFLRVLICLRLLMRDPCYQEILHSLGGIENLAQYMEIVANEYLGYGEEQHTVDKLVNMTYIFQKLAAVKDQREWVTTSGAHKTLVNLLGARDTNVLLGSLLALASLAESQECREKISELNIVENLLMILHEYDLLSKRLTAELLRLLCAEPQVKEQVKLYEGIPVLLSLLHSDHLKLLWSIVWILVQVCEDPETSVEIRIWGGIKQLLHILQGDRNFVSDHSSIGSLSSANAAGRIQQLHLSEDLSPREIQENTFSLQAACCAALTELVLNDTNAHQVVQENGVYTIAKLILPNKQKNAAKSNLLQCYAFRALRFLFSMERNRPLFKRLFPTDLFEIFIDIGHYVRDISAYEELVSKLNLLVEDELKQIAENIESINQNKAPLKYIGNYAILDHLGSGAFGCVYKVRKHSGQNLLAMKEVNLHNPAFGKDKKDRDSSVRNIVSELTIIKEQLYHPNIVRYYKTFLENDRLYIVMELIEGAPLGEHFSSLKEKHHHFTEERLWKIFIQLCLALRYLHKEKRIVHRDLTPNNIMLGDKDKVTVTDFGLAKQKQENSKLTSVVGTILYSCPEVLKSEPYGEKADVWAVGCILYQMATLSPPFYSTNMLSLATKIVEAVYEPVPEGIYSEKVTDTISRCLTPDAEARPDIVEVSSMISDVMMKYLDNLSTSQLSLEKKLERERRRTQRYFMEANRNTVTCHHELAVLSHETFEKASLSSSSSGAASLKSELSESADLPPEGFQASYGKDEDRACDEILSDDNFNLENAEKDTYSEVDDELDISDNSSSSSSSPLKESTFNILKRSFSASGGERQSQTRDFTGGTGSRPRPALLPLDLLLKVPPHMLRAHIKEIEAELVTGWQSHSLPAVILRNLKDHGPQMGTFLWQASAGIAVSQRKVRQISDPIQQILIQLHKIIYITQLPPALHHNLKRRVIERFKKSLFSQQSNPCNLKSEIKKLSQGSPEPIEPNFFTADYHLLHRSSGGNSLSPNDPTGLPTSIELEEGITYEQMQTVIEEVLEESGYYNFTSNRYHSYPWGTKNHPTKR

[2] = target: T5, TYK2(JH2domain-pseudokinase) (Homo sapiens, UniProt P29597)
T5 construct: TYK2(JH2domain-pseudokinase); purchased Eurofins DiscoverX KINOMEscan
T5 sequence (P29597 556-888 limits assumed): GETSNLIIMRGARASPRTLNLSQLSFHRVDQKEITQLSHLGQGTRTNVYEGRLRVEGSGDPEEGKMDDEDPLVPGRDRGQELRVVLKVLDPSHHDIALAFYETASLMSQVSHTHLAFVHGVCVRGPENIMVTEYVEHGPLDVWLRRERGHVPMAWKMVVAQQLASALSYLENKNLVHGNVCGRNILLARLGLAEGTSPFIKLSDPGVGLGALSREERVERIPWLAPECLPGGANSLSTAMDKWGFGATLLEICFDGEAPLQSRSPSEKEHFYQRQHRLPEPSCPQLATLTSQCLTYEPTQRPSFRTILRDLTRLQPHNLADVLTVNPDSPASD

CDKL2 = target: T6, CDKL2 (Homo sapiens, UniProt Q92772)
T6 construct: purchased Eurofins DiscoverX KINOMEscan
T6 sequence (Q92772 1-493): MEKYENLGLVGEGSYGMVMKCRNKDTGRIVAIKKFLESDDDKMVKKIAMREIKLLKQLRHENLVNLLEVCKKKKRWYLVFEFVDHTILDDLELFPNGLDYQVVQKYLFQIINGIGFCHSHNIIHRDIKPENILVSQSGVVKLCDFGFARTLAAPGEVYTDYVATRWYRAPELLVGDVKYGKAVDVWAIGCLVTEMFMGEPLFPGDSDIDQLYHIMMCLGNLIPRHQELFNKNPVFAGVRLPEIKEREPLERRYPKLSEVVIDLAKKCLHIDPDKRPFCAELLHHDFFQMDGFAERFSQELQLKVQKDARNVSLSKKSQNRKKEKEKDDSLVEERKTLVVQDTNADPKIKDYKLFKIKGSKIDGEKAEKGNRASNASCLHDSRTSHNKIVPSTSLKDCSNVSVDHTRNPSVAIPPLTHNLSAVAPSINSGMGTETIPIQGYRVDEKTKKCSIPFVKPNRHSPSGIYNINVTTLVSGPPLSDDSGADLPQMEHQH

OSR1 = target: T7, OSR1 (Homo sapiens, UniProt O95747)
T7 construct: purchased Eurofins DiscoverX KINOMEscan
T7 sequence (O95747 whole entry): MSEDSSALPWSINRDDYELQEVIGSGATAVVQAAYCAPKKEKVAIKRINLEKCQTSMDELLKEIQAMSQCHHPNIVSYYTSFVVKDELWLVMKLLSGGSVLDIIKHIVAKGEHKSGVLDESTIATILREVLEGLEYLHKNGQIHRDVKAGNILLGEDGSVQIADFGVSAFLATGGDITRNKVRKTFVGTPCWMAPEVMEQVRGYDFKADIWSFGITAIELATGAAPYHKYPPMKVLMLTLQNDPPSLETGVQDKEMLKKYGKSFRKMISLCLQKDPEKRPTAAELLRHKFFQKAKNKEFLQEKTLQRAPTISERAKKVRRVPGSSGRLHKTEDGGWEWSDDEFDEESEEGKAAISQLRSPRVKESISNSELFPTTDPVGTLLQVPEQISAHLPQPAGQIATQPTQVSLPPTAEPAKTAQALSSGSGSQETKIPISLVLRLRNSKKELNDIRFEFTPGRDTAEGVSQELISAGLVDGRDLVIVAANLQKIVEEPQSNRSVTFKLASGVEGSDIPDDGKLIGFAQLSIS

PLK2 = target: T8, PLK2 (Homo sapiens, UniProt Q9NYY3)
T8 construct: purchased Eurofins DiscoverX KINOMEscan
T8 sequence (Q9NYY3 whole entry): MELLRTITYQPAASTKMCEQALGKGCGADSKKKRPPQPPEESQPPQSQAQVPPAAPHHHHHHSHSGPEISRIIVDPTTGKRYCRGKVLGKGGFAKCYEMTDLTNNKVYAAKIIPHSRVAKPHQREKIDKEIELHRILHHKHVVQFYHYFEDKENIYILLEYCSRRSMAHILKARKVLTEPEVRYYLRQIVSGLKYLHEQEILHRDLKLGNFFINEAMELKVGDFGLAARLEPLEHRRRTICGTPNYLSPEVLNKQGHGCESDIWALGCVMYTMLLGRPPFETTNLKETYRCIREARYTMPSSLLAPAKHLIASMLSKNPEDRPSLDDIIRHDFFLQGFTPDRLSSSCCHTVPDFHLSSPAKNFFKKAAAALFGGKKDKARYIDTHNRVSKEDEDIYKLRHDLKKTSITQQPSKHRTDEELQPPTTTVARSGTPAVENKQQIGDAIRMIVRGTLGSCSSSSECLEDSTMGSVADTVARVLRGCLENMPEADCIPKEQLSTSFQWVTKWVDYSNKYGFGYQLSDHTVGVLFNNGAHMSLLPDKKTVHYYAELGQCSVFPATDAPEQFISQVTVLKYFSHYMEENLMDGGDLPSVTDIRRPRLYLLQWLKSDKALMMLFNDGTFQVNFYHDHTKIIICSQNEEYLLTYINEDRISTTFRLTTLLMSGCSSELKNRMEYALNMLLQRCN

LRRK2 = target: T9, LRRK2 (Homo sapiens, UniProt Q5S007)
T9 construct: purchased Eurofins DiscoverX KINOMEscan

CDK2 = target: T10, CDK2 (Homo sapiens, UniProt P24941)
T10 construct: purchased Eurofins DiscoverX KINOMEscan

SRPK1 = target: T11, SRPK1 (Homo sapiens, UniProt Q96SB4)
T11 construct: purchased Eurofins DiscoverX KINOMEscan
T11 sequence (Q96SB4 whole entry): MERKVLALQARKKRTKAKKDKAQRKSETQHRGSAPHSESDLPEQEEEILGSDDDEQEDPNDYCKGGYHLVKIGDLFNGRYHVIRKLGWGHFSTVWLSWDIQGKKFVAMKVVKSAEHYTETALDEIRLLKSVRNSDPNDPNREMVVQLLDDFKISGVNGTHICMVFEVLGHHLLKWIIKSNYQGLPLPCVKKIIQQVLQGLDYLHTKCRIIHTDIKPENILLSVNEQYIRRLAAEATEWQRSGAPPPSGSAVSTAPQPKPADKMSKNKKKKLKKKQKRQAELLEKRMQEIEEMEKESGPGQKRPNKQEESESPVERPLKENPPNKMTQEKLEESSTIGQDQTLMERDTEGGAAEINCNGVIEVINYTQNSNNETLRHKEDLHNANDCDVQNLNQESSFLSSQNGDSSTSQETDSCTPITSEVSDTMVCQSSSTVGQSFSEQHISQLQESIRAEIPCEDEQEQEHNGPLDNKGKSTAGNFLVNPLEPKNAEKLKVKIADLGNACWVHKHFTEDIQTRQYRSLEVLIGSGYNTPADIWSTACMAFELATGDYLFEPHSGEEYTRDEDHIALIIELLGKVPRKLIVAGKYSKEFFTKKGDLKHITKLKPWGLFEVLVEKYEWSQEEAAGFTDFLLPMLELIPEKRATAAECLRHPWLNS

CSNK2A1 = target: T12, CSNK2A1 (Homo sapiens, UniProt P68400)
T12 construct: purchased Eurofins DiscoverX KINOMEscan
T12 sequence (P68400 whole entry): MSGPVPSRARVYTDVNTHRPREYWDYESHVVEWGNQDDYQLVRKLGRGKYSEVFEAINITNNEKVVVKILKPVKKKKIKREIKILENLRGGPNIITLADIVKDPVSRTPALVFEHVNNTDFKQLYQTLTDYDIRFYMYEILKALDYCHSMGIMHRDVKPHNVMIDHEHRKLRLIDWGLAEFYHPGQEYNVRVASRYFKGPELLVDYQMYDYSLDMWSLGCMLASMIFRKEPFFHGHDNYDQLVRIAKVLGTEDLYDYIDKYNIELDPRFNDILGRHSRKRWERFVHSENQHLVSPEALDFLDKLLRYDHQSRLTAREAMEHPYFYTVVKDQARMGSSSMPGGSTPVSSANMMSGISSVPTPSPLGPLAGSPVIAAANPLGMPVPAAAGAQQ

MAP3K4 = target: T13, MAP3K4 (Homo sapiens, UniProt Q9Y6R4)
T13 construct: purchased Eurofins DiscoverX KINOMEscan

TGFBR1 = target: T14, TGFBR1 (Homo sapiens, UniProt P36897)
T14 construct: purchased Eurofins DiscoverX KINOMEscan
T14 sequence (P36897 34-503): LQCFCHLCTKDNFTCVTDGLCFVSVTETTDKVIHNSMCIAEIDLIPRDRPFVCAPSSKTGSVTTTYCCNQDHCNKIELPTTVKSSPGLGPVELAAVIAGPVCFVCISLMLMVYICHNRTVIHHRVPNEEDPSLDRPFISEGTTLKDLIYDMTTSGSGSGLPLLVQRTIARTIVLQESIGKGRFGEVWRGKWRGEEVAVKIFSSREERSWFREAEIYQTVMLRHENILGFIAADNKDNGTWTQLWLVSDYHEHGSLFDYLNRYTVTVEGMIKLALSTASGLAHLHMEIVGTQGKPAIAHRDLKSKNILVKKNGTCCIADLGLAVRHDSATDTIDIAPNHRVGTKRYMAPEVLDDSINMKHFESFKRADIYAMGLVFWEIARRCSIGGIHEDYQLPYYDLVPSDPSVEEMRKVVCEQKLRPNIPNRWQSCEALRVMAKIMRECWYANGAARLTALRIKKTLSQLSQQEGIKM

MLK2 = target: T15, MLK2 (Homo sapiens, UniProt Q02779)
T15 construct: purchased Eurofins DiscoverX KINOMEscan
T15 sequence (Q02779 whole entry): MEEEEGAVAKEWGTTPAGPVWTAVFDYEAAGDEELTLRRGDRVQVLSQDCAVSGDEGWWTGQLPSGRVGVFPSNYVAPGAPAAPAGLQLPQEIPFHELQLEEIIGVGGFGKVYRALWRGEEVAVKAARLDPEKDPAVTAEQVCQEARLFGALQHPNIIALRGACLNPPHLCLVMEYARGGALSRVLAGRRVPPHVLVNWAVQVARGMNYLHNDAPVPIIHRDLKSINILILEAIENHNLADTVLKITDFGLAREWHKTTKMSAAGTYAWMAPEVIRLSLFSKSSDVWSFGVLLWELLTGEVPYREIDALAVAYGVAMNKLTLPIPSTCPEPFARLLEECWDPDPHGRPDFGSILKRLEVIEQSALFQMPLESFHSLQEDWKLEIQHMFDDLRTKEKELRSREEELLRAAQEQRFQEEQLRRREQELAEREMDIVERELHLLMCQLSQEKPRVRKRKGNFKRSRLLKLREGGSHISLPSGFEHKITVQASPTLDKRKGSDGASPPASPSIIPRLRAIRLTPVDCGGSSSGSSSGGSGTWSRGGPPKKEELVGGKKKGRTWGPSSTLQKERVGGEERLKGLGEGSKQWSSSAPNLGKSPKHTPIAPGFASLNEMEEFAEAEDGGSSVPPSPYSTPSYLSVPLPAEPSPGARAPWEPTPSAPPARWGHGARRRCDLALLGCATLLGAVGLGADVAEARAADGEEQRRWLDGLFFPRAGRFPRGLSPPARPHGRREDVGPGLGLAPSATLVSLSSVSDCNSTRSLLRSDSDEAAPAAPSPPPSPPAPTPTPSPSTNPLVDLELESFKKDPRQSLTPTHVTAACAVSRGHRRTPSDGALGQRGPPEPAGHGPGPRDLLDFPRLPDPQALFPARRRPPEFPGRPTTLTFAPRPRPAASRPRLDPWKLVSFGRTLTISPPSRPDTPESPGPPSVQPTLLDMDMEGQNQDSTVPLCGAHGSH

T1 sequence (Q14680 whole entry): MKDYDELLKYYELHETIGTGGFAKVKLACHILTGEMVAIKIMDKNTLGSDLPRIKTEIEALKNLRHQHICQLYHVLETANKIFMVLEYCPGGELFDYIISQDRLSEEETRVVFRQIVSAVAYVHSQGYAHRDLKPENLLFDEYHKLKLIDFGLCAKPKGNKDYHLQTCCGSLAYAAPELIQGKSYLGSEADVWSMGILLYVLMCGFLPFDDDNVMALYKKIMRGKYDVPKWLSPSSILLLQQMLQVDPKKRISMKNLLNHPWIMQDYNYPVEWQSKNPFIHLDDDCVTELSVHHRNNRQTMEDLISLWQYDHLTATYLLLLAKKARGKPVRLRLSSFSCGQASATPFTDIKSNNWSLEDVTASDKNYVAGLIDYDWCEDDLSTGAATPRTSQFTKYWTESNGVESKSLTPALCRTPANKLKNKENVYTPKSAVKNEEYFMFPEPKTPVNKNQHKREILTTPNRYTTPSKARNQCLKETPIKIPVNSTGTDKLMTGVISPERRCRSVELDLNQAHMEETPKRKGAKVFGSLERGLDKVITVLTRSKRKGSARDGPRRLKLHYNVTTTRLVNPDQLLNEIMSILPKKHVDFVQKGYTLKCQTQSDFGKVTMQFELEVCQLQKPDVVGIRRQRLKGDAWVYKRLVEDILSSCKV

Compound | remaining binding at 1 µM (MELK) [%] | remaining binding at 1 µM [1] [%] | remaining binding at 1 µM (FES) [%] | remaining binding at 1 µM (NEK10) [%] | remaining binding at 1 µM [2] [%] | remaining binding at 1 µM (CDKL2) [%] | remaining binding at 1 µM (OSR1) [%] | remaining binding at 1 µM (PLK2) [%] | remaining binding at 1 µM (LRRK2) [%] | remaining binding at 1 µM (CDK2) [%] | remaining binding at 1 µM (SRPK1) [%] | remaining binding at 1 µM (CSNK2A1) [%] | remaining binding at 1 µM (MAP3K4) [%] | remaining binding at 1 µM (TGFBR1) [%] | remaining binding at 1 µM (MLK2) [%]
CN1CCC(CNc2cc(Cl)nn3c(-c4cc5nc(Nc6ccccc6)[nH]c5cc4F)cnc23)CC1 [compound 31, 6-Chloro-3-(6-fluoro-2-(phenylamino)-1H-benzo[d]imidazol-5-yl)-N-((1-methylpiperidin-4-yl)methyl)imidazo[1,2-b]pyridazin-8-amine] | 96 | 76 | 96 | 100 | 73 | 81 | 100 | 90 | 100 | 98 | 84 | 99 | 86 | 92 | 88
O=C(CN1CCOCC1)N[C@H]1CC[C@H](Nc2cc(Cl)nn3c(-c4ccc5[nH]ncc5c4)cnc23)CC1 [compound 26] | 16 | 8.1 | 88 | 72 | 99 | 88 | 99 | 100 | 90 | 95 | 79 | 75 | 86 | 100 | 92
Clc1cc(NCC2CC2)c2ncc(-c3ccc4[nH]ncc4c3)n2n1 [compound 2, 6-Chloro-N-(cyclopropylmethyl)-3-(1H-indazol-5-yl)imidazo[1,2-b]pyridazin-8-amine] | 35 | 93 | 87 | 92 | 91 | 83 | 79 | 66 | 94 | 88 | 100 | 85 | 74 | 100 | 100
